According to publication PMC11396751, “Design, Synthesis, and Anticancer Activity of Novel Enmein-Type Diterpenoid Derivatives Targeting the PI3K/Akt/mTOR Signaling Pathway” (Molecules, 2024):

Legend:
MCF-7 cells = assay: MTT anti-proliferative assay, MCF-7; assay type: cell-based; settings: Homo sapiens, MCF7, 48 h, means ± SD of three experiments
Method: (§1) A series of novel enmein-type diterpenoid derivatives, 5a–m, were synthesized by introducing a side chain containing a carbamate moiety at the C-6 position of compound 4. The anticancer activities of 5a–m were tested against three human cancer cell lines and one human normal cell line by MTT assay.
(§2) Human non-small cell lung cancer cell lines (A549), human liver cancer cell lines (HepG2), human breast cancer cell lines (MCF-7), and human normal cell lines (L-02) were purchased from the cell bank of the Chinese Academy of Sciences. All cells were placed in RPMI-1640 medium (added 10% fetal bovine serum, […]) and cultured in an aseptic environment with 5% CO2 at 37 °C.
(§3) All derivatives were evaluated for their anti-proliferative activities against three cancer cell lines and one normal cell line by MTT assay. The cells in the logarithmic growth phase were inoculated into 96-well plates (3 × 10^3 cells/well) and incubated for 48 h in a sterile environment with 5% CO2 at 37 °C to make them attach via cell adhesion; then, the cells were co-incubated with target compounds for 48 h. After that, MTT solution (10 µL/well) was added to the cell culture medium to continue incubation for 4 h, following which the medium was replaced with DMSO (150 µL/well). The absorbance values at 490 nm were determined using an enzyme meter (Safire 2, Tecan, Männedorf, Switzerland) and further converted to half-inhibitory concentration values of these compounds.

L-02 cells = assay: MTT anti-proliferative assay, normal L-02 cells; assay type: cell-based; settings: Homo sapiens, L02, 48 h, means ± SD of three experiments
Method: as §1, §2, §3

A549 cells = assay: MTT anti-proliferative assay, A549; assay type: cell-based, human; settings: Homo sapiens, A549; MTT, 48 h; means ± SD of three experiments
Method: as §1, §2, §3

HepG2 cells = assay: MTT anti-proliferative assay, HepG2; assay type: cell-based, human; settings: for IC50: Homo sapiens, HepG2, MTT, 48 h, means ± SD of three experiments
Method: as §1, §2, §3

HeLa = tested on: HeLa; set-up: method as in PMID 20183309, PMID 26757019, doi:10.1016/j.tetlet.2007.10.133, PMID 19431012; settings: Figure 1; cited from earlier work
HL60 = tested on: HL60; set-up: method as in PMID 20183309, PMID 26757019, doi:10.1016/j.tetlet.2007.10.133, PMID 19431012; settings: Figure 1; cited from earlier work
MCF-7 = tested on: MCF-7; set-up: method as in PMID 20183309, PMID 26757019, doi:10.1016/j.tetlet.2007.10.133, PMID 19431012; settings: Figure 1; cited from earlier work
A549 = tested on: A549; set-up: method as in PMID 20183309, PMID 26757019, doi:10.1016/j.tetlet.2007.10.133, PMID 19431012; settings: Figure 1; cited from earlier work

IC50 (MCF-7 cells) | IC50 (A549 cells) | IC50 (HepG2 cells) | Compound | IC50 (L-02 cells) | anticancer activity in words, HepG2 (HepG2 cells; HepG2 cells) | IC50 (HeLa) | IC50 (HL60) | IC50 (MCF-7) | IC50 (A549)
13 ± 1.52 µM | 8.6 ± 2.65 µM | 8.78 ± 1.46 µM | C=C1C(=O)C23C(=O)OC45CCC(C)(C)C6C(OC(=O)CCC(=O)NCc7ccc(Br)cc7)OCC64C2CCC1C3O5 (single isomer, unassigned; ent-6) [Compound 7g, ent-6β,14α-Dihydroxy-(1,7–1,14)-epoxy-7,15-dioxo-6,20-hemiketal-6,7-seco-16-kaurene-6β-yl 4-((4-bromobenzyl)amino)-4-oxobutanoate] | > 50 µM | low micro-molar-level anticancer activities |  |  |  | 
 |  |  | C=C1C(=O)C23CC1CCC2C12COC(O)C1C(C)(C)CCC2OC3=O (stereo not drawn) [Isodocarpin] |  |  | 4.01 µM | 0.57 µM |  | 
18.5 ± 1.37 µM | 21.1 ± 1.58 µM | 22.6 ± 1.2 µM | C=C1C(=O)[C@]23[C@H](O)[C@H]1CC[C@H]2[C@@]12CO[C@]3(O)[C@@H](O)[C@@H]1C(C)(C)CC[C@@H]2O [Oridonin, reference compound] | 23.6 ± 1.65 µM |  |  |  |  | 
 |  |  | C=C1C(=O)[C@]23C[C@H]1C[C@H](O)C2[C@@]12CO[C@@H](OC)C1C(C)(C)CC[C@@H]2OC3=O (stereo partly drawn) [Rabdosin A] |  |  |  | 2.11 µM | 2.82 µM | 3.53 µM
5.15 ± 0.8 µM | 4.21 ± 0.73 µM | 6.6 ± 1.61 µM | CC(=O)O[C@H]1C(=O)[C@@]2(C)[C@H]([C@H](OC(=O)c3ccccc3)[C@]3(O)C[C@H](OC(=O)[C@H](O)[C@@H](NC(=O)c4ccccc4)c4ccccc4)C(C)=C1C3(C)C)[C@]1(OC(C)=O)CO[C@@H]1C[C@@H]2O [Taxol, reference compound] | 8.31 ± 1.82 µM |  |  |  |  | 
